Patent US20030157715A1, “Modulation of chromosome function by chromatin remodeling agents” (priority 2000, published 2003)

Columns and labels:
[1] = target: W9 probe (tandem repeats of an oligonucleotide with a 9 bp AT-tract); test: DNase I footprinting on probe W9; assay type: binding; settings: apparent binding affinity, DNase I footprinting, probe W9; read-out: Kdapp W9
Text: DNase I cleavage pattern in the presence of P9 and P7. Ligand concentrations are indicated at the top of each lane. The position of each of the AT-tracts is indicated by square brackets. […] This probe is composed of head-to-tail tandem repeats of an oligonucleotide with a 9 bp AT-tract.
(§1) Synthetic oligonucleotides […] and […] were hybridized to obtain the W9 probe, oligomerized by ligation and digested with BamHI and BglII to obtain different tandem repeats. The following oligonucleotides were prepared identically: GAF31 is composed of the oligonucleotides […] and […] and, BrownI of oligonucleotides […] and […]. Fragments were purified on low-melt agarose gels and then cloned into a modified pSP64 vector, cut by BamHI and BglII. End-labeling was carried out following digestion with HindIII and a fill-in reaction with Klenow DNA polymerase. The labeled plasmid was cut with PvuII and the target fragments purified from low-melting agarose gels. The 657 bp EcoR1/Hinf1 fragment of the Drosophila histone SAR was cloned into the SmaI site of the modified pSP64 plasmid. This SAR probe was end-labeled following-digestion with EcoR1, then cut with ClaI and the resulting 347 bp fragment purified from low-melting agarose gels.
(§2) All reactions were performed in a total volume of 40 μl. A polyamide stock solution or buffer (for reference lanes) was added to an assay buffer containing 20 kcpm radiolabeled DNA, affording final concentrations of 10 mM Tris-HCl (pH 7.4), 10 mM KCl, 10 MM MgCl, 5 mM CaCl2, 0.5 mM EDTA, 0.5 mM EGTA, 1 mM DTT and 0.1% digitonine. The solutions were allowed to equilibrate for at least 2 h at room temperature. Footprinting reactions were initiated by the addition of 2 μl of a DNase stock solution (containing −100 μg DNase I in buffer) and allowed to proceed for 2 min at room temperature. The reactions were stopped by addition of 10 μl of a solution containing 1.25 M NaCl, 100 mM EDTA. Next, 5 μl of a 1% SDS solution was added, followed by 2 μl of a solution containing 1 μg poly(dA-dT), 1 μg salmon sperm DNA and 10 μg glycogen and the DNA was ethanol precipitated (20 min at −20 C.). The reactions were resuspended in 4 μl of 80% formamide loading buffer, denatured 10 min at 85 C., cooled on ice and electrophoresed on 8% polyacrylamide denaturing gels (5% cross-link, 8 M urea) at 30 W for 1 h. The gels were dried and exposed o/n at −70 C.

Drosophila histone SAR = test: DNase I footprinting on SAR probe; assay type: binding; settings: for Ratio: Kdapp W9 / Kdapp SAR (SAR specificity factor); for Kd: apparent binding affinity, DNase I footprinting, SAR probe, read-out: Kdapp SAR
Procedure: as §1, §2

[2] = system: satellite III chromatin in Kc nuclei; settings: previously reported (Kas and Laemmli, 1992); cited from earlier work
[3] = system: DNA satellites in Kc nuclei and polytene chromosomes; test: Staining of Kc nuclei and polytene chromosomes with fluorescent polyamides; parameters: species or system Drosophila; settings: isolated Kc nuclei and polytene chromosomes
Procedure: Kc Drosophila nuclei were isolated (Mirkovitch et al., 1984), diluted into XBE (10 mM Hepes, pH 7.7, 2 mM MgCl2, 0.1 mM CaCl2, 100 mM KCl, 5 mM EGTA and 50 mM sucrose), fixed with 0.8% fresh paraformaldehyde for 15 minutes and spun onto a round coverslip (10 mm) as described previously (Boy de la Tour and Laemmli, 1988). For washing and staining, coverslips were floated on 60 μl drops of XBE deposited on […]. After centrifugation coverslips were washed twice (1 minute), stained for 60 minutes, washed four times (1 minute) and then mounted in PPDI (5 mM Hepes pH 7.8, 100 mM NaCl, 20 mM KCl, 1 mM EGTA, 10 mM Mg SO4, 2 mM CaCl2, 78% glycerol, 1 mgr/ml paraphenylene diamine). FIG. (4) panel A was stained with 0.5 μM […] and 15 μM ethidium bromide (EB). Kc nuclei and polytene chromosomes were stained with fluorescent polyamides as described elsewhere (Janssen et al., 2000). For immunofluorescence, polytene glands were carefully dissected from bw^D or Canton S. flies in 1× PBS as described (Ashburner, 1989) Whole glands in sol P (1×PBS supplemented with 1 mM MgCl2 and 0.1% digitonin) were then incubated for 60 minutes with various concentrations of either P31, P9 or no compound at room temperature. P31 (not P9) induced redistribution of GAF during this incubation step. […] Images were recorded with a wide field, deconvolution-type imaging system from DeltaVision.

| Kd [1] [nM] | Ratio (Drosophila histone SAR) | Kd (Drosophila histone SAR) [nM] | increase of SAR specificity upon fluorescein tagging (Drosophila histone SAR; tagged versus untagged compound) | Molecule | chromatin opening at satellite III by distamycin [2] | main nuclear targets by epifluorescence staining [3] |
| --- | --- | --- | --- | --- | --- | --- |
| 80 | 2.3 | 35 | – | CN(C)CCCNC(=O)CCNC(=O)c1cc(NC(=O)c2cc(NC(=O)c3cc(NC(=O)c4cc(NC(=O)c5cccn5C)cn4C)cn3C)cn2C)cn1C [Compound P10, (Py)5βDp] | – | – |
| 1 | 0.8 | 1.25 | – | CN(C)CCCNC(=O)CCNC(=O)c1cc(NC(=O)c2cc(NC(=O)c3cc(NC(=O)CCNC(=O)c4cc(NC(=O)c5cc(NC(=O)c6cc(NC(=O)CCNC(=O)c7cc(NC(=O)c8cc(NC(=O)c9cccn9C)cn8C)cn7C)cn6C)cn5C)cn4C)cn3C)cn2C)cn1C [Compound P13, ((Py)3β)3Dp] | – | – |
| – | – | – | – | Cn1cc(NC(=O)c2cc(NC(=O)c3cc(NC=O)cn3C)cn2C)cc1C(=O)NCCC(=N)N [distamycin] | causes opening of the chromatin fiber | – |
| 4 | 4 | 1 | about 4 fold | (Py)3β(Py)3βD* [Compound P9F] | – | targets primarily satellite I and III |
| 3000 | 2.5 | 1200 | – | F*γ(Py)5βDp [Compound P10F] | – | – |
